Patent US20100029761A1, “NOVEL COMPOUNDS, PHARMACEUTICAL COMPOSITIONS CONTAINING SAME, AND METHODS OF USE FOR SAME” (priority 2005, published 2010)
≈ marks a conversion by molar mass, not a printed value. Read-outs that look alike come from different tables or passages of the source.

Tests used:
[1] = Weight loss screen; assay type: in vivo, Balb/C mice; details: 60 mg/kg intraperitoneally
Description: Balb/C mice (Jackson Labs) are utilized for the initial weight loss screening. Animals are housed in temperature and 12 hour day/night cycle rooms and fed mouse chow and water ad lib. Three mice are utilized for each compound tested with vehicle controls in triplicate per experiment. For the experiments, mice are housed separately for each compound tested three mice to a cage. Compounds are diluted in DMSO at 10 mg/ml and mice are injected intraperitoneally with 60 mg/kg in approximately 100 μl of DMSO or with vehicle alone. Mice are observed and weighed daily; average weights and standard errors are computed with Excel (Microsoft). The experiment continues until treated animals reach their pretreatment weights. Select compounds are tested in animals housed in metabolic cages. Dosing of animals are identical to the screening experiments with three animals to a single metabolic cage. Animal weights, water and food consumption, and urine and feces production are measured daily.

[2] = system: Escherichia coli (ATCC # 25922); test: Broth microdilution MIC, E. coli; assay type: cell-based; details: for Ecoli/MH (MIC): Mueller Hinton Broth; for Ecoli/Tsoy (MIC): Trypticase Soy Broth
Description: (§1) A broth microdilution assay is used to assess the antimicrobial activity of the compounds. […] Microorganisms tested include Staphylococcus aureus (ATCC # 29213), Enterococcus faecalis (ATCC # 29212), Pseudomonas aeruginosa (ATCC # 27853), and Escherichia coli (ATCC # 25922). The assay is performed in two growth media, Mueller Hinton Broth and Trypticase Soy Broth. A blood (Tsoy/5% sheep blood) agar plate is inoculated from frozen stocks maintained in T soy broth containing 10% glycerol and incubated overnight at 37° C. Colonies are suspended in sterile broth so that the turbidity matches the turbidity of a 0.5 McFarland standard. The inoculum is diluted 1:10 in sterile broth (Mueller Hinton or Trypticase soy) and 195 ul is dispensed per well of a 96-well plate. The compounds to be tested, dissolved in DMSO, are added to the wells in 5 ul volume at the following concentrations: 25, 12.5, 6.25, 3.125, 1.56 and 0.78 ug/ml in duplicate. Additional concentrations are tested if required. 5 ul of DMSO added to duplicate wells are the vehicle control. Serial dilutions of positive control compounds, vancomycin (E. faecalis and S. aureus) and tobramycin (E. coli and P. aeruginosa), are included in each run. After 24 hours of incubation at 37° C., plates are read at OD600 on a Molecular Devices SpectraMax Plus Spectrophotometer. Average OD600 values are computed using SOFTmax Pro Software (Molecular Devices) and MIC values are determined by linear regression analysis using Prism version 3.02 (Graph Pad Software, San Diego). The MIC is defined as the concentration of compound required to produce an OD600 reading equivalent to 10% of the vehicle control reading.

[3] = system: Enterococcus faecalis (ATCC # 29212); test: Broth microdilution MIC, E. faecalis; assay type: cell-based; details: for MIC: Enterococcus faecalis, ATCC29212
Description: as §1

[4] = Weight loss, DIO; assay type: in vivo; details: 20 mg/kg
[5] = Trypticase Soy Broth, read-out: EF/Tsoy (MIC)

SMILES	Weight Loss ([1]; day 4)	Ecoli/MH (MIC) [2]	Ecoli/Tsoy (MIC) [2]	MIC [3, 5] [µg/mL]	EF/MH (MIC) ([3]; Mueller Hinton Broth)	Weight Loss DIO ([4]; day 3)	Weight Loss DIO ([4]; day 2)	Weight Loss ([1]; day 1, printed with + sign)	MIC ([3]; Mueller Hinton Broth, read-out: EF/MH (MIC)) [µg/mL]
CCCCCCCCC1OC(=O)C(=O)C1C(=O)OCC (stereo not drawn) [Compound 1]	60 mg/kg: 9.7% (day 4)	Neg	Neg	42 (≈ 148 µM)	Neg	DIO: 20 mg/kg: 4.6% (day 3)	–	–	–
CCCCC1OC(=O)C(O)=C1C(=O)OCC (stereo not drawn) [Compound 2]	60 mg/kg: 12.3% (day 4)	Neg	Neg	163 (≈ 714 µM)	Neg	–	DIO: 20 mg/kg: 3.0% (day 2)	–	–
CCCCCCCCC1OC(=O)C(OCC(=O)OCC)=C1C(=O)OCC (stereo not drawn) [Compound 3]	–	–	–	135 (≈ 364 µM)	–	–	–	60 mg/kg: +1.8% (day 1)	100 (≈ 270 µM)
